Results taken from PMC12340637, “Transport of Small Aliphatic Amines by Polyspecific Solute Carriers: Deciphering Structure–Function Relationships” (ACS Pharmacology & Translational Science, 2025).
Marks after values point to notes of the source that are not given here.

Tests used:
[1] = target: T1, OCT1 (SLC22A1) (Homo sapiens, UniProt O15245); experiment: Cellular uptake into OCT1-overexpressing HEK293 cells vs EV control cells (HPLC-MS/MS); conditions: for K m (±SEM) / v max (±SEM): OCT1, net uptake, Michaelis–Menten; for substrate activity at OCT1 (in words): uptake ratio ≥2 = notable transport; for uptake ratio OCT1 (transporter-overexpressing cells over EV control cells): mean (±SD, N): 2 min, HEK293
T1 sequence (O15245 1-554): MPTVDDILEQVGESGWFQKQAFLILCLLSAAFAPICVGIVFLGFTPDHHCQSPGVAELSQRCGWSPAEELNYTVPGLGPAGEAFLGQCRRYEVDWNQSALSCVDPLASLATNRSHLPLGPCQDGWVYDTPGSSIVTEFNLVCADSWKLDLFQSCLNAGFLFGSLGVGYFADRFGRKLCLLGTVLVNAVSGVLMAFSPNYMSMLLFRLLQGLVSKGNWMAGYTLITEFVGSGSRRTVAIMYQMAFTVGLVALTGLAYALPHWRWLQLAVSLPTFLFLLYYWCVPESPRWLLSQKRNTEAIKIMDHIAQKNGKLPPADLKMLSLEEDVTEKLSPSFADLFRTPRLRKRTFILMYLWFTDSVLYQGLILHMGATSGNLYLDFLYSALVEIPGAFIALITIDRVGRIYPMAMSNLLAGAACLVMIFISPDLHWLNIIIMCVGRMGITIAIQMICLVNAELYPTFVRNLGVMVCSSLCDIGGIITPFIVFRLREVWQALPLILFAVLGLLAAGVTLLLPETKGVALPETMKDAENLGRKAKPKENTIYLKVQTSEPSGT

[2] = target: T2, OCT2 (SLC22A2) (Homo sapiens, UniProt O15244); experiment: Cellular uptake into OCT2-overexpressing HEK293 cells vs EV control cells (HPLC-MS/MS); conditions: for K m (±SEM) / v max (±SEM): OCT2, net uptake, Michaelis–Menten; for substrate activity at OCT2 (in words): uptake ratio ≥2 = notable transport; for uptake ratio OCT2 (transporter-overexpressing cells over EV control cells): mean (±SD, N): 2 min, HEK293
T2 sequence (O15244 1-555): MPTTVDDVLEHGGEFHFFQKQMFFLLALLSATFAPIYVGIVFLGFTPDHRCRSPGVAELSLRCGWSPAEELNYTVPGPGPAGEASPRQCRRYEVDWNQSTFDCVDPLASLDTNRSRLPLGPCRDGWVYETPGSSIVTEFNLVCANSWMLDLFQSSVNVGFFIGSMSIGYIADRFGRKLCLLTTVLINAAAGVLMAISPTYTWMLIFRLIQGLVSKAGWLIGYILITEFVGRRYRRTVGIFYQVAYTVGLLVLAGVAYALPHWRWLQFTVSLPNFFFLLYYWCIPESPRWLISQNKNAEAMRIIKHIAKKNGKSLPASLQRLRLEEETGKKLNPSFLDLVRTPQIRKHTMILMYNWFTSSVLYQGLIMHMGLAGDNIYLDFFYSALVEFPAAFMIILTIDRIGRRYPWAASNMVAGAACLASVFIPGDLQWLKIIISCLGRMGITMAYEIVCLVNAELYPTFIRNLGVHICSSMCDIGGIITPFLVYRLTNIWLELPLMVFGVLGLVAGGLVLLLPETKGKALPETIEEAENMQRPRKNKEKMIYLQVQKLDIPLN

[3] = target: T3, OCT3 (SLC22A3) (Homo sapiens, UniProt O75751); experiment: Cellular uptake into OCT3-overexpressing HEK293 cells vs EV control cells (HPLC-MS/MS); conditions: for K m (±SEM) / v max (±SEM): OCT3, net uptake, Michaelis–Menten; for substrate activity at OCT3 (in words): uptake ratio ≥2 = notable transport; for uptake ratio OCT3 (transporter-overexpressing cells over EV control cells): mean (±SD, N): 2 min, HEK293
T3 sequence (O75751 1-556): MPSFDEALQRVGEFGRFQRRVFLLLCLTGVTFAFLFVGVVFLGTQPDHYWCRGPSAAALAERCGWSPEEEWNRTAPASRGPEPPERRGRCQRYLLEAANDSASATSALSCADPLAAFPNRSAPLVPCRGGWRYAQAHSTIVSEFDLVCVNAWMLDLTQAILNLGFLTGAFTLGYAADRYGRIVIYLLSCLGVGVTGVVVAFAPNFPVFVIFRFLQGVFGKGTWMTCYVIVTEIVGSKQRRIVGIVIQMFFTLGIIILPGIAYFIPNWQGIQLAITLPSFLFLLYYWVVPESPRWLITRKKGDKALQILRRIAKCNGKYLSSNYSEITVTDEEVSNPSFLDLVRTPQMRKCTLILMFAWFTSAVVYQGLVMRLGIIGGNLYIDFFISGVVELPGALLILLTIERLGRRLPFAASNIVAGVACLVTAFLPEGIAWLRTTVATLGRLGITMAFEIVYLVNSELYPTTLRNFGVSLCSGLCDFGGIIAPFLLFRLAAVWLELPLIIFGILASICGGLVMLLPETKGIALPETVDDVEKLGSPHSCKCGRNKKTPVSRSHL

[4] = target: T4, MATE1 (SLC47A1) (Homo sapiens, UniProt Q96FL8); experiment: Cellular uptake into MATE1-overexpressing HEK293 cells vs EV control cells (HPLC-MS/MS); conditions: for K m (±SEM) / v max (±SEM): MATE1, net uptake, Michaelis–Menten; for substrate activity at MATE1 (in words): uptake ratio ≥2 = notable transport; for uptake ratio MATE1 (transporter-overexpressing cells over EV control cells): mean (±SD, N): 2.5 μM substrate, 1 min, 30 mM NH4Cl preincubation, HEK293
T4 sequence (Q96FL8 1-570): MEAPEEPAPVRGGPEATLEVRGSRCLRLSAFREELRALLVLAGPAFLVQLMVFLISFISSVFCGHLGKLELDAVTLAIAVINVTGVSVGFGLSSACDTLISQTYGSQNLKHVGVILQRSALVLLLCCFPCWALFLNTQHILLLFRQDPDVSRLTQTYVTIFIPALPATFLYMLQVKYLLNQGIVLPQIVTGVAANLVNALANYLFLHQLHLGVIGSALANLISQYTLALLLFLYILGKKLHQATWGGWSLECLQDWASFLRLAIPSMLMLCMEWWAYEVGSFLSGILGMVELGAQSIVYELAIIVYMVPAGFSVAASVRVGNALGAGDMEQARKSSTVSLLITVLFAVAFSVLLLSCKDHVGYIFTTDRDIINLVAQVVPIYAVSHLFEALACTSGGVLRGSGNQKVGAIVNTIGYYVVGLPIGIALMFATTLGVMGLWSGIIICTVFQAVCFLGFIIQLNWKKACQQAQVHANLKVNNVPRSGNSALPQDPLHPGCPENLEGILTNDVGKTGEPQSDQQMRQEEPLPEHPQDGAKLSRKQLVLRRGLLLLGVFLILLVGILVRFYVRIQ

[5] = target: MATE2-K (SLC47A2) (Homo sapiens, UniProt Q86VL8); experiment: Cellular uptake into MATE2-K-overexpressing HEK293 cells vs EV control cells (HPLC-MS/MS); conditions: for uptake ratio MATE2K (transporter-overexpressing cells over EV control cells): mean (±SD, N): 2.5 μM substrate, 1 min, 30 mM NH4Cl preincubation, HEK293
Sequence of MATE2-K (SLC47A2) (Q86VL8 1-566 isoform Q86VL8-3): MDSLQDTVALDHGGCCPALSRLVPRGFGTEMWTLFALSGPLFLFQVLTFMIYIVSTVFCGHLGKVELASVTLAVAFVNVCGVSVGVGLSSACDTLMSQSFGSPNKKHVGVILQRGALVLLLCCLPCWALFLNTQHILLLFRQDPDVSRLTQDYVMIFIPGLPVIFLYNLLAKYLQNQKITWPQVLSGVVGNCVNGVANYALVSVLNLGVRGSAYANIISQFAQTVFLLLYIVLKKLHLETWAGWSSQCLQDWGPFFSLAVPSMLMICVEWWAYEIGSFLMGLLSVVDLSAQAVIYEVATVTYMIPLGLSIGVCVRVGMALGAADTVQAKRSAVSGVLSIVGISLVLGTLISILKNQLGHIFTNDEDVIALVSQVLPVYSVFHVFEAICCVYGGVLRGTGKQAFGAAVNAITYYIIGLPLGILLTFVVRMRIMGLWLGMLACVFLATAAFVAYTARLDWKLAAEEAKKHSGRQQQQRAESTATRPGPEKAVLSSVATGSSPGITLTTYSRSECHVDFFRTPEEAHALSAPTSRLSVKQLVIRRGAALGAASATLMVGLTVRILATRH

Row | SMILES | substrate activity at OCT1 (in words) [1] | K m (±SEM) [2] | v max (±SEM) [2] | substrate activity at OCT2 (in words) [2] | substrate activity at OCT3 (in words) [3] | substrate activity at MATE1 (in words) [4] | uptake ratio MATE2K (transporter-overexpressing cells over EV control cells): mean (±SD, N) [5] | uptake ratio OCT1 (transporter-overexpressing cells over EV control cells): mean (±SD, N) ([1]; 10 μM substrate) | uptake ratio OCT2 (transporter-overexpressing cells over EV control cells): mean (±SD, N) ([2]; 10 μM substrate) | uptake ratio OCT3 (transporter-overexpressing cells over EV control cells): mean (±SD, N) ([3]; 10 μM substrate) | uptake ratio MATE1 (transporter-overexpressing cells over EV control cells): mean (±SD, N) [4] | also measured
1 | NCCCCCO [5-amino-1-pentanol] | notable transport | 1260 (±452) μM | 14,996 (±2181) pmol/mg protein/min | notable transport | notable transport | notable transport | 1.2 (0.6, 5) | – | – | – | – | K m (±SEM) [1]: 132 (±121) μM; v max (±SEM) [1]: 135 (±37) pmol/mg protein/min; K m (±SEM) [3]: 5776 (±2458) μM; v max (±SEM) [3]: 5271 (±1641) pmol/mg protein/min; K m (±SEM) [4]: 1040 (±451) μM; v max (±SEM) [4]: 10,761 (±2694) pmol/mg protein/min
2 | CC(C)CN [isobutylamine] | – | – | – | – | – | – | 1.2 (0.3, 4) | 1.1 (0.2, 4) | 3.4 (1.2, 4) ^a | 0.7 (0.2, 4) ^a | 0.9 (0.2, 4) | –
3 | NCC(O)CN [1,3-diamino-2-propanol] | – | 65 (±91) μM | 110 (±56) pmol/mg protein/min | – | – | – | 0.8 (0.1, 3) | 1.4 (0.6, 5) | 3.7 (2.4, 3) | 1.6 (0.3, 3) | 1.1 (0.1, 3) | –
4 | CCCCCN [amylamine] | – | – | – | – | – | – | 0.8 (0.3, 3) | 1.2 (0.5, 4) | 6.7 (3.2, 4) ^a | 0.9 (0.3, 4) | 0.5 (0.2, 3) ^a | –
5 | CC(N)CN(CC(C)N)CC(C)N (stereo not drawn) [tris(2-aminopropyl)amine] | did not show any substrate activity | – | – | did not show any substrate activity | did not show any substrate activity | did not show any substrate activity | - ^d | - ^d | - ^d | - ^d | - ^d | substrate activity at MATE2-K (in words) ([5]; uptake ratio ≥2 = notable transport): did not show any substrate activity
6 | CNCCCO [3-methylamino-1-propanol] | – | – | – | – | – | – | 1.1 (0.4, 4) | 1.2 (0.2, 3) | 2.6 (1.0, 4) ^a | 1.0 (0.2, 3) | 0.8 (0.2, 4) | –
7 | CC[C@H](C)[C@H](N)CO [(S)-(+)-isoleucinol] | – | 116 (±59) μM | 1303 (±287) pmol/mg protein/min | – | – | – | 1.0 (0.1, 3) | – | – | – | 1.1 (0.2, 3) | uptake ratio OCT1 (transporter-overexpressing cells over EV control cells): mean (±SD, N) ([1]; 2.5 μM substrate (§)): 1.0 (0.1, 4); uptake ratio OCT2 (transporter-overexpressing cells over EV control cells): mean (±SD, N) ([2]; 2.5 μM substrate (§)): 7.6 (1.5, 4) ^b; K m (±SEM) ([2]; listed as isoleucinol): 116 µM; uptake ratio OCT3 (transporter-overexpressing cells over EV control cells): mean (±SD, N) ([3]; 2.5 μM substrate (§)): 0.9 (0.1, 4)
8 | NCCCCCCO [6-amino-1-hexanol] | notable transport | 1176 (±273) μM | 16,933 (±2577) pmol/mg protein/min | notable transport | notable transport | notable transport | 1.4 (0.3, 3) | – | – | – | – | K m (±SEM) [1]: 487 (±171) μM; v max (±SEM) [1]: 1656 (±294) pmol/mg protein/min; K m (±SEM) [3]: 1168 (±151) μM; v max (±SEM) [3]: 4675 (±384) pmol/mg protein/min; K m (±SEM) [4]: 253 (±47) μM; v max (±SEM) [4]: 14,115 (±1479) pmol/mg protein/min
